Reference: patent publication US12252492B2, “Substituted fused pyrrolo-diazepinones and uses thereof” (Northwestern University, priority 2018, dated 2025)

Assays:
Assay type in all cases: cell-based, human
HOP-62 = assay: NCI60 one-dose screen, HOP-62; conditions: HOP-62 (Non-Small Cell Lung Cancer); NCI 60 one-dose, 10^-5 M
Experimental: (§1) Anti-cancer activity screening of all compounds was performed by the NCI Developmental Therapeutics Program (DTP) through their NCI60 screening initiative. Assay details can be found at the website dtp.cancer.gov/discovery_development/nci-60/methodology.htm. Information from this website is reproduced here for convenience.
(§2) As of early 2007 all compounds submitted to the NCI 60 Cell screen are tested initially at a single high dose (10^-5 M) in the full NCI 60 cell panel. Only compounds which satisfy pre-determined threshold inhibition criteria in a minimum number of cell lines will progress to the full 5-dose assay. The threshold inhibition criteria for progression to the 5-dose screen was selected to efficiently capture compounds with anti-proliferative activity based on careful analysis of historical DTP screening data. The threshold criteria may be updated as additional data becomes available.
(§3) The One-dose data will be reported as a mean graph of the percent growth of treated cells and will be similar in appearance to mean graphs from the 5-dose assay. […]
(§4) Following drug addition, the plates are incubated for an additional 48 h at 37° C., 5% CO2, 95% air, and 100% relative humidity. […] Bound stain is subsequently solubilized with 10 mM trizma base, and the absorbance is read on an automated plate reader at a wavelength of 515 nm. […]

NCI60 Cell Line Panel = assay: NCI60 one-dose screen, whole panel statistics; conditions: mean over the NCI60 cell line panel, 10^-5 M
Experimental: as §1, §2, §3, §4

NCI-H460 = assay: NCI60 one-dose screen, NCI-H460; conditions: NCI-H460 (Non-Small Cell Lung Cancer); NCI 60 one-dose, 10^-5 M
Experimental: as §1, §2, §3, §4

UO-31 = assay: NCI60 one-dose screen, UO-31; conditions: UO-31 (Renal Cancer); NCI 60 one-dose, 10^-5 M
Experimental: as §1, §2, §3, §4

MDA-MB-435 = assay: NCI60 one-dose screen, MDA-MB-435; conditions: MDA-MB-435 (Melanoma); NCI 60 one-dose, 10^-5 M
Experimental: as §1, §2, §3, §4

SK-MEL-28 = assay: NCI60 one-dose screen, SK-MEL-28; conditions: SK-MEL-28 (Melanoma); NCI 60 one-dose, 10^-5 M
Experimental: as §1, §2, §3, §4

SNB-75 = assay: NCI60 one-dose screen, SNB-75; conditions: SNB-75 (CNS Cancer); NCI 60 one-dose, 10^-5 M
Experimental: as §1, §2, §3, §4

SNB-19 = assay: NCI60 one-dose screen, SNB-19; conditions: SNB-19 (CNS Cancer); NCI 60 one-dose, 10^-5 M
Experimental: as §1, §2, §3, §4

NCI-H23 = assay: NCI60 one-dose screen, NCI-H23; conditions: NCI-H23 (Non-Small Cell Lung Cancer); NCI 60 one-dose, 10^-5 M
Experimental: as §1, §2, §3, §4

SF-268 = assay: NCI60 one-dose screen, SF-268; conditions: SF-268 (CNS Cancer); NCI 60 one-dose, 10^-5 M
Experimental: as §1, §2, §3, §4

HOP-92 = assay: NCI60 one-dose screen, HOP-92; conditions: HOP-92 (Non-Small Cell Lung Cancer); NCI 60 one-dose, 10^-5 M
Experimental: as §1, §2, §3, §4

MOLT-4 = assay: NCI60 one-dose screen, MOLT-4; conditions: MOLT-4 (Leukemia); NCI 60 one-dose, 10^-5 M
Experimental: as §1, §2, §3, §4

MDA-MB-468 = assay: NCI60 one-dose screen, MDA-MB-468; conditions: MDA-MB-468 (Breast Cancer); NCI 60 one-dose, 10^-5 M
Experimental: as §1, §2, §3, §4

HCT-15 = assay: NCI60 one-dose screen, HCT-15; conditions: HCT-15 (Colon Cancer); NCI 60 one-dose, 10^-5 M
Experimental: as §1, §2, §3, §4

IGROV1 = assay: NCI60 one-dose screen, IGROV1; conditions: IGROV1 (Ovarian Cancer); NCI 60 one-dose, 10^-5 M
Experimental: as §1, §2, §3, §4

786-0 = assay: NCI60 one-dose screen, 786-0; conditions: 786-0 (Renal Cancer); NCI 60 one-dose, 10^-5 M
Experimental: as §1, §2, §3, §4

SK-MEL-5 = assay: NCI60 one-dose screen, SK-MEL-5; conditions: SK-MEL-5 (Melanoma); NCI 60 one-dose, 10^-5 M
Experimental: as §1, §2, §3, §4

OVCAR-5 = assay: NCI60 one-dose screen, OVCAR-5; conditions: OVCAR-5 (Ovarian Cancer); NCI 60 one-dose, 10^-5 M
Experimental: as §1, §2, §3, §4

| SMILES | Growth Percent (HOP-62) | Growth Percent, Mean (NCI60 Cell Line Panel) | Growth Percent (NCI-H460) | Growth Percent (UO-31) | Growth Percent (MDA-MB-435) | Growth Percent (SK-MEL-28) | Growth Percent (SNB-75) | Growth Percent (SNB-19) | Growth Percent (NCI-H23) | Growth Percent (SF-268) | Growth Percent (HOP-92) | Growth Percent (MOLT-4) | Growth Percent (MDA-MB-468) | Growth Percent (HCT-15) | Growth Percent (IGROV1) | Growth Percent (786-0) | Growth Percent (SK-MEL-5) | Growth Percent (OVCAR-5) |
| --- | --- | --- | --- | --- | --- | --- | --- | --- | --- | --- | --- | --- | --- | --- | --- | --- | --- | --- |
| CC(=O)N1c2ccccc2NC2=C(C(=O)N(Cc3ccccc3)C2(C)C)C1c1ccco1 (stereo not drawn) [NUCC-608455] | 33.09% | 23.48% | 4.83% | 52.54% | −56.24% | 57.26% | 16.83% | 23.61% | 20.85% | 42.68% | 21.07% | 28.58% | −1.86% | 15.65% | 26.78% | 21.45% | 7.88% | 25.92% |
| CC(=O)N1c2ccccc2NC2=C(C(=O)N(C)C2(C)C)C1c1ccccc1 (stereo not drawn) [NUCC-60872] | 61.59% | 41.43% | 21.87% | 81.99% | −67.83% | 56.02% | −3.29% | 39.87% | 50.21% | 42.99% | 37.54% | 33.27% | 19.19% | 93.83% | 39.64% | 80.09% | 27.50% | 62.50% |
